One data set has as its target Gal-3C. Particulars: read-out: Kd (Gal-3C); previously reported inhibitor, Figure 1A; ref Galecto Biotech; cited from earlier work.
Data set [1] can be described thus: Cytotoxicity assay, HEK293. Format: cell-based. Conditions: human, HEK293 cells, viability dye, flow cytometry. As for the experimental part:
(§1) To evaluate in vitro cytotoxicity and support its potential application in inflammatory and fibrotic disease models, the following panel of cell lines, representing the relevant biological systems, was used: HEK293, HepG2, THP1, Jurkat E6.1, and LX2. HEK293, HepG2, and Jurkat E6.1 cells were seeded at 400,000 cells/mL, THP1 cells at 500,000 cells/mL, and LX2 cells at 200,000 cells/mL in 96-well plates (cell culture-treated, VWR) in 100 μL/well. Cells were treated with the tested compounds in a serial dilution (300, 100, 33.3, 11.1, and 3.7 μM) for 24 h. Untreated cells served as negative controls to establish the baseline viability threshold. Cell viability was assessed using a viability dye (Zombie Violet Fixable Viability Kit, BioLegend) following the manufacturer’s instructions and analyzed by flow cytometry (see below).
(§2) Cells or beads from screening assays prepared for flow cytometry were analyzed by the CytoFlex S instrument (Beckman Coulter). Data acquisition was performed using CytExpert software (v2.5, Beckman Coulter). Debris was excluded by forward and side scatter gating, followed by doublet exclusion. Data were analyzed using FlowJo software (v10, BD Biosciences).

The nature of data set [2]: Plasma stability assay, rat plasma. The format is in vitro ADME. Particulars: 37 °C. As for the experimental part: (§3) Test compounds (10 μM) were incubated with mouse, rat, or human pooled plasma from 50 donors (Biowest) at 37 °C for 20, 60, and 120 min. Reactions were terminated by adding four volumes of ice-cold methanol, followed by vigorous mixing. Samples were kept at −20 °C for 30 min and then stored at 4 °C overnight. The next day, samples were centrifuged, and supernatants were diluted with four volumes of 30% methanol in water. Zero time points were prepared by adding ice-cold methanol to the compound prior to the addition of plasma. Samples were then analyzed on an Echo MS system (SCIEX) using multiple reaction monitoring (MRM). The only exception was compound 3af, which was analyzed by LC–MS/MS (SCIEX 6500 triple quadrupole) due to its weak ionization in Echo-MS.

A further data set is described as follows: Cytotoxicity assay, THP1. Format: cell-based. Conditions: human, THP1 cells, viability dye, flow cytometry. As for the experimental part: as §1, §2
(In general: In flow cytometry, cells or beads pass a laser one at a time.)

Data set [3] can be described thus: Cytotoxicity assay, Jurkat E6.1. Format: cell-based. Conditions: human, Jurkat E6.1 cells, viability dye, flow cytometry. The method, then:
as §1, §2

A short description of data set [4]: Cytotoxicity assay, panel of five human cell lines. Particulars: HEK293, HepG2, THP-1, Jurkat E6.1 and LX2 cells; summary in text across panel of five human cell lines. Format: cell-based. The method, then: as §1, §2
For the next data set, the target named is Gal-1. Conditions: previously reported inhibitor, Figure 1A; ref Galecto Biotech; cited from earlier work.
Data set [5] in a line: Microsomal stability assay, mouse liver microsomes. The format is in vitro ADME. Conditions: pooled liver microsomes, pH 7.4, mouse liver microsomes 0.5 mg/mL, NADPH. As for the experimental part:
(§4) Microsomal stability was determined using 0.5 mg/mL of pooled human, mouse, or rat liver microsomes (Thermo Fisher Scientific) in 90 mM TRIS-Cl buffer (pH 7.4) containing 2 mM NADPH and 2 mM MgCl2. Test compounds (10 μM) were added, and the resulting mixture was incubated at 37 °C for 10, 60, 120, and 180 min. The reactions were terminated by the addition of four volumes of ice-cold methanol, followed by vigorous mixing. The samples were left at −20 °C for 30 min and then stored at 4 °C overnight. The next day, samples were centrifuged, and supernatants were diluted with four volumes of 30% methanol in water. Zero time points were prepared by adding ice-cold methanol to the mixture of compounds and cofactors prior to the addition of microsomes. The samples were then analyzed using the Echo-MS system (SCIEX) with MRM transition monitoring, except for compound 3af, which was analyzed by LC–MS/MS as described in the plasma stability assay.
For orientation: Liver microsomes are vesicles of endoplasmic reticulum, rich in cytochrome P450 enzymes.

The nature of another data set: Cytotoxicity assay, LX2. Format: cell-based. Conditions: human, LX2 cells, viability dye, flow cytometry. The method, then:
as §1, §2

The nature of data set [6]: Microsomal stability assay, rat liver microsomes. The format is in vitro ADME. Conditions: pooled liver microsomes, pH 7.4, rat liver microsomes 0.5 mg/mL, NADPH. As for the experimental part:
as §4

A short description of data set [7]: Cytotoxicity assay, HepG2. Conditions: human, HepG2 cells, viability dye, flow cytometry. Format: cell-based. The method, then:
as §1, §2

Data set [8] can be described thus: Microsomal stability assay, human liver microsomes. Format: in vitro ADME. Conditions: pooled liver microsomes, pH 7.4, human liver microsomes 0.5 mg/mL, NADPH. As for the experimental part: as §4
A short description of data set [9]: Plasma stability assay, human plasma. Format: in vitro ADME. Particulars: pooled plasma, 37 °C. The method, then:
as §3

Data set [10] addresses T1, intracellular Gal-3 in THP1 cells (Homo sapiens, UniProt P17931).
T1 construct: Untreated cells served as negative and baseline controls representing maximum intracellular Gal-3 levels; endogenous in cells; host or cells: THP1 (monocyte-like or PMA-differentiated macrophage-like)
The data set can be described thus: Intracellular Gal-3 target engagement in THP1 cells (flow cytometry, MFI). Format: cell-based. Conditions: 2 h. As for the experimental part: THP1 cells were used to assess the binding of the tested compounds to Gal-3. Cells were either maintained in suspension as undifferentiated monocyte-like cells or differentiated into macrophage-like cells by overnight treatment with phorbol 12-myristate 13-acetate (PMA, Sigma-Aldrich) at a final concentration of 10 ng/mL. […] Untreated cells served as negative and baseline controls representing maximum intracellular Gal-3 levels. Cells were then harvested and intracellularly stained either with galectin-3 monoclonal antibody eF660 (Invitrogen, Thermo Fisher Scientific) or a relevant isotype antibody (Invitrogen, Thermo Fisher Scientific) for flow cytometric analyses (see below). A dose-dependent decrease in Gal-3 signal upon compound treatment was used to assess intracellular target engagement expressed as median fluorescent intensity (MFI).
as §2

In data set [11] the test system is LPS-stimulated macrophage-like THP1 cells (TNFα secretion). The data set can be described thus: Anti-inflammatory potential: TNFα secretion in LPS-stimulated PMA-differentiated THP1 cells. Format: cell-based, human. Conditions: (+)PMA THP1, 1 μg/mL LPS, 24 h, up to 300 μM. The method, then:
Cells were differentiated overnight into macrophage-like phenotypes by treatment with 10 ng/mL PMA and subsequently stimulated with 1 μg/mL lipopolysaccharide (LPS; Invitrogen, Thermo Fisher Scientific) to induce a proinflammatory response. […] After 24 h of LPS and compound exposure, cell culture supernatants were collected and analyzed for TNFα levels using a bead-based multiplex immunoassay (ProcartaPlex Human Basic Kit and TNFα Human ProcartaPlex Simplex Kit, both Invitrogen, Thermo Fisher Scientific). Flow cytometry readout was used as previously described. TNFα concentrations were calculated using a standard curve generated in GraphPad Prism 10 (GraphPad Software, San Diego, CA). Cells or beads from screening assays prepared for flow cytometry were analyzed by the CytoFlex S instrument (Beckman Coulter). Data acquisition was performed using CytExpert software (v2.5, Beckman Coulter). Debris was excluded by forward and side scatter gating, followed by doublet exclusion. Data were analyzed using FlowJo software (v10, BD Biosciences).

Data set [12] is described as follows: Plasma stability assay, mouse plasma. Format: in vitro ADME. Conditions: 37 °C. The method, then:
as §3

T1 sequence (P17931 whole entry): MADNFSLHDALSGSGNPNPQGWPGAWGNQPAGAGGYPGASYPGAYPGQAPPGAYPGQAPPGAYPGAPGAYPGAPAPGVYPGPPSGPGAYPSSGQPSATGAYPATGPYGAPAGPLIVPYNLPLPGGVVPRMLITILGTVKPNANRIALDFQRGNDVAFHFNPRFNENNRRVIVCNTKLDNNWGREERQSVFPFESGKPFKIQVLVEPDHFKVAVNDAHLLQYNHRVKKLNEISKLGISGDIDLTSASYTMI

As for `OC[C@H]1O[C@@H](S[C@@H]2O[C@H](CO)[C@H](O)[C@H](n3cc(-c4cccc(F)c4)nn3)[C@H]2O)[C@H](O)[C@@H](n2cc(-c3cccc(F)c3)nn2)[C@H]1O` [GB0139, reference compound], the Kd (usually a measure of binding affinity in units of concentration) on Gal-3C was 0.014 µM; on Gal-1, 0.012 µM. In addition, the CC50 (usually the concentration giving 50% cytotoxicity) at 24 h was over 300 µM in data set [1]; over 300 µM in the data set “Cytotoxicity assay, THP1”; over 300 µM in [3]; over 300 µM in data set [4]; over 300 µM in the data set “Cytotoxicity assay, LX2”; over 300 µM in data set [7]. The share remaining at 2 h, 10 μM was 78 ± 8% in data set [2], 110 ± 5% in data set [9] and 68 ± 3% in data set [12]. The microsomal CLint – broadly, the rate of metabolic loss divided by the concentration – at 10 μM in [5] was 6 ± 5 µL/min/mg; in [6], under 2 µL/min/mg; in data set [8], 12 ± 6 µL/min/mg. In [10] ((+)PMA differentiated THP1, 3.7–300 μM), the “intracellular Gal-3 signal (MFI), macrophage-like THP1 cells” value is reported as “reduced the Gal-3 signal”. Besides, the “intracellular Gal-3 signal (MFI), monocyte-like THP1 cells” value in [10] ((−)PMA undifferentiated THP1, 3.7–300 μM) is “minimal effect”. Moreover, the “LPS-induced TNFα secretion” value in data set [11] is “effectively reduced TNFα secretion”.

The values above are taken from paper PMC12670426 (Journal of Medicinal Chemistry, 2025).
